According to PMC6264397, “Interaction of the Main Components from the Traditional Chinese Drug Pair Chaihu-Shaoyao Based on Rat Intestinal Absorption” (Molecules, 2011):
Several values for one entry are separate records, joined by “and”; a condition that tells them apart may be missing. Equal entries are not always repeated. Where two headings read alike, the source gives them in different places.

Assays:
rat intestine = test: four-site single-pass perfused rat intestinal model; format: in vivo; design: P*eff Duodenum / P*eff Jejunum / P*eff Ileum: unit not given here
Protocol: The absorptions of SSA, SSD and paeoniflorin in different intestinal segments were studied by the rat intestinal perfusion model. The concentrations of all the compounds of interest were 20 μmol·L^−1. The concentrations of the compounds in the perfusate samples were analyzed by UPLC or LC/MS, and then the P*eff and […] of SSA, SSD and paeoniflorin were calculated.
The perfusion protocol was approved by the Animal Ethics Committee of Jiangsu Provincial Academy of Chinese Medicine. The intestinal surgical procedures were described in our previous publications. Briefly, rats were anesthetized with an intra-muscular injection of urethane (0.5 g mL^−1) and placed on a heated surface maintained at its normal body temperature. Four segments of intestine, duodenum, jejunum, ileum, and colon (8–12 cm) were simultaneously cannulated with no disruption of circulation to the intestine, each with two cannulae. After cannulation, the small intestinal segments were placed carefully into the abdominal cavity, avoiding crimping or kinking of the segments. To keep the temperature of the perfusate constant, the inlet cannulate was kept warm by a 37 °C circulating water bath.
This is a single-pass perfusion method. Four segments of the intestine (duodenum, upper jejunum, terminal ileum, and colon) were perfused simultaneously with a perfusate containing the compound of interest using an infusion pump (Harvard Apparatus, Cambridge, MA, USA) at a flow rate of 0.2 mL min^−1. After a 30-min washout period, which is usually sufficient to achieve the steady-state absorption, four samples were collected from the outlet cannulae every 30 min afterward. After perfusion, the length of the intestine was measured as described previously. The outlet concentrations of the test compounds in the luminal perfusate were determined by HPLC or LC/MS.
The outlet concentrations of SSA and SSD were determined by LC/MS using a HPLC-Agilent 6410 Triple Quad (Agilent, Palo Alto, CA, USA) system equipped with an atmospheric-pressure chemical ionization source. The samples were separated on a Zorbax SB-C18 column (250 mm × 4.6 mm, 5 μm, Agilent) and Zorbax SB-C18 precolumn (4.6 × 12.5 mm, […], Agilent). The mobile phase consisted of acetonitrile and water (40:60, v/v), and the flow rate was 0.4 mL·min^−1. The column temperature was maintained at 35 °C and the injection volume was 20 μL. For MS analysis, atmospheric-pressure chemical ionization (APCI) source was operated in the negative ion mode. The selected parameters were as follows: drying nitrogen gas at 350 °C and a flow-rate of […]; nebulizer pressure at 20 p.s.i.g. (1 p.s.i. = 6894.76 Pa); vaporizer temperature at 325 °C; capillary voltage at 4,500 V and corona current at 4 μA. The chromatograms obtained for quantitation were recorded under time-scheduled SIM, with fragmentor voltages was set at 150 V. The scan range was from m/z 250 to m/z 1,000. The instrument was programmed for a scan dwell time of 200 ms. Intense […] ions at m/z 781 and m/z 255 were shown for SSA (SSD) and chrysin(internal standard). In general, these methods were selective and reproducible with day to day variability of less than 3%. The tested linear response range for SSA and SSD was 0.625 to 80 μM. The accuracy and precision were greater than 98%. The recovery of three different concentrations was around 90.91%~92.66%, and RSD was less than 5% (n = 5).
UPLC was used to analyze the concentration of paeoniflorin in the perfusate samples. The conditions were as follows: Waters Acquity™ system, with diode array detector and Empower software; column, Acquity UPLC BEH C-18 1.7 μm, 50 × 2.1 mm, (Waters, Milford, MA, USA); mobile phase A, water; mobile phase B, acetonitrile; gradient, 0~0.8 min, 15~22% B, 0.8~1.0 min, 22% B, 1.0~1.5 min, 35% B, 1.5~2.2 min, 70% B; flow rate, 0.4 mL·min^−1; wavelength 230 nm (paeoniflorin) and 245 nm (testosterone, the internal standard); column temperature, 35 °C; injection volume, 10 μL. […]

Caco-2 cell = system: Caco-2 cell; design: method as in earlier work; settings: cited from earlier work
[1] = co-administrated with SSA, colon
[2] = co-administrated with SSA, ileum
[3] = co-administration with SSD, colon
[4] = co-administration with SSD, ileum
[5] = compound alone, 20 μmol·L−1, colon, n = 4
[6] = compound alone, 20 μmol·L−1, duodenum, n = 4
[7] = compound alone, 20 μmol·L−1, ileum, n = 4
[8] = compound alone, 20 μmol·L−1, jejunum, n = 4

C[C@@]12C[C@@]3(O)O[C@@H](O1)[C@]1(COC(=O)c4ccccc4)[C@H]3C[C@@]12O[C@@H]1O[C@H](CO)[C@@H](O)[C@H](O)[C@H]1O [Paeoniflorin, paeoniflorin]
P*eff Colon (rat intestine; co-administrated with SSA (20:20 μmol·L−1), colon): 0.636 ± 0.034
P*eff Duodenum (rat intestine; co-administrated with SSA (20:20 μmol·L−1), duodenum): 0.279 ± 0.049
P*eff Ileum (rat intestine; co-administrated with SSA (20:20 μmol·L−1), ileum): 0.665 ± 0.053
P*eff Jejunum (rat intestine; co-administrated with SSA (20:20 μmol·L−1), jejunum): 0.263 ± 0.029
fold increase of 10% ABS vs individual compound (rat intestine; [1]): 1.25 fold
fold increase of P*eff vs individual compound (rat intestine; [1]): 1.90 fold
fold increase of 10% ABS vs individual compound (rat intestine; [2]): 1.40 fold
fold increase of P*eff vs individual compound (rat intestine; [2]): 2.11 fold and ~2.11 fold
P*eff Colon (rat intestine; co-administrated with SSD, colon): 0.696 ± 0.054
P*eff Duodenum (rat intestine; co-administrated with SSD, duodenum): 0.304 ± 0.048
P*eff Ileum (rat intestine; co-administrated with SSD, ileum): 0.731 ± 0.052
P*eff Jejunum (rat intestine; co-administrated with SSD, jejunum): 0.280 ± 0.051
10 cm % ABS Colon (rat intestine; co-administration with SSA (20:20 μmol·L−1), colon, n = 4): 12.07 ± 0.46 * %
10 cm % ABS Colon (rat intestine; co-administration with SSA (20:20 μmol·L−1), colon, n = 4, listed as paeoniflorin): 12.07 ± 0.46%
10 cm % ABS Duodenum (rat intestine; co-administration with SSA (20:20 μmol·L−1), duodenum, n = 4): 6.13 ± 1.82%
10 cm % ABS Ileum (rat intestine; co-administration with SSA (20:20 μmol·L−1), ileum, n = 4): 12.57 ± 0.36 * %
10 cm % ABS Ileum (rat intestine; co-administration with SSA (20:20 μmol·L−1), ileum, n = 4, listed as paeoniflorin): 12.57 ± 0.36%
10 cm % ABS Jejunum (rat intestine; co-administration with SSA (20:20 μmol·L−1), jejunum, n = 4): 4.78 ± 1.15%
fold increase of 10% ABS vs individual compound (rat intestine; [3]): 1.51 fold
fold increase of P*eff vs individual compound (rat intestine; [3]): 2.18 fold
10 cm % ABS Colon (rat intestine; co-administration with SSD, colon, n = 4): 13.48 ± 0.57 * %
10 cm % ABS Colon (rat intestine; co-administration with SSD, colon, n = 4, listed as paeoniflorin): 13.48 ± 0.57%
10 cm % ABS Duodenum (rat intestine; co-administration with SSD, duodenum, n = 4): 6.68 ± 1.91%
fold increase of 10% ABS vs individual compound (rat intestine; [4]): 1.63 fold
fold increase of P*eff vs individual compound (rat intestine; [4]): 2.42 fold and ~1.90 fold
10 cm % ABS Ileum (rat intestine; co-administration with SSD, ileum, n = 4): 13.75 ± 0.99 * %
10 cm % ABS Ileum (rat intestine; co-administration with SSD, ileum, n = 4, listed as paeoniflorin): 13.75 ± 0.99%
10 cm % ABS Jejunum (rat intestine; co-administration with SSD, jejunum, n = 4): 5.77 ± 1.39%
10 cm % ABS Colon (rat intestine; [5]): 5.37 ± 1.19%
P*eff Colon (rat intestine; [5]): 0.219 ± 0.051
P*eff Colon (rat intestine; compound alone, 20 μmol·L−1, colon, n = 4, listed as paeoniflorin): 0.219
10 cm % ABS Duodenum (rat intestine; [6]): 6.57 ± 0.98%
P*eff Duodenum (rat intestine; [6]): 0.268 ± 0.042
P*eff Duodenum (rat intestine; compound alone, 20 μmol·L−1, duodenum, n = 4, listed as paeoniflorin): 0.268
10 cm % ABS Ileum (rat intestine; [7]): 5.23 ± 0.49%
P*eff Ileum (rat intestine; [7]): 0.214 ± 0.021
P*eff Ileum (rat intestine; compound alone, 20 μmol·L−1, ileum, n = 4, listed as paeoniflorin): 0.214
10 cm % ABS Jejunum (rat intestine; [8]): 5.94 ± 0.70%
P*eff Jejunum (rat intestine; [8]): 0.243 ± 0.030
P*eff Jejunum (rat intestine; compound alone, 20 μmol·L−1, jejunum, n = 4, listed as paeoniflorin): 0.243
change of electric resistance values of Caco-2 cell membranes (Caco-2 cell; after individual paeoniflorin was transported): no significant change
change of electric resistance values of Caco-2 cell membranes (Caco-2 cell; paeoniflorin co-administered with saikosaponins): significantly decreased

C[C@H]1O[C@@H](O[C@H]2CC[C@@]3(C)[C@@H](CC[C@]4(C)[C@@H]3C=C[C@]35OC[C@@]6(CCC(C)(C)C[C@H]63)[C@@H](O)C[C@]54C)[C@]2(C)CO)[C@H](O)[C@@H](O[C@@H]2O[C@H](CO)[C@@H](O)[C@H](O)[C@H]2O)[C@H]1O [SSA, saikosaponin a]
P*eff Colon (rat intestine; co-administrated with paeoniflorin (20:20 μmol·L−1), colon): 0.215 ± 0.030
P*eff Duodenum (rat intestine; co-administrated with paeoniflorin (20:20 μmol·L−1), duodenum): 0.193 ± 0.028
P*eff Ileum (rat intestine; co-administrated with paeoniflorin (20:20 μmol·L−1), ileum): 0.347 ± 0.036
P*eff Jejunum (rat intestine; co-administrated with paeoniflorin (20:20 μmol·L−1), jejunum): 0.194 ± 0.023
10 cm % ABS Colon (rat intestine; co-administration with paeoniflorin (20:20 μmol·L−1), colon, n = 4): 3.51 ± 0.73%
10 cm % ABS Duodenum (rat intestine; co-administration with paeoniflorin (20:20 μmol·L−1), duodenum, n = 4): 4.11 ± 0.30%
10 cm % ABS Ileum (rat intestine; co-administration with paeoniflorin (20:20 μmol·L−1), ileum, n = 4): 5.20 ± 0.67%
10 cm % ABS Jejunum (rat intestine; co-administration with paeoniflorin (20:20 μmol·L−1), jejunum, n = 4): 3.49 ± 0.61%
10 cm % ABS Colon (rat intestine; [5]): 3.84 ± 0.10%
P*eff Colon (rat intestine; [5]): 0.239 ± 0.042
10 cm % ABS Duodenum (rat intestine; [6]): 3.75 ± 0.57%
P*eff Duodenum (rat intestine; [6]): 0.193 ± 0.028
10 cm % ABS Ileum (rat intestine; [7]): 6.26 ± 0.56 * %
P*eff Ileum (rat intestine; [7]): 0.361 ± 0.014 *
10 cm % ABS Jejunum (rat intestine; [8]): 3.91 ± 0.60%
P*eff Jejunum (rat intestine; [8]): 0.207 ± 0.012
